Values of other authors as cited in US20010007758A1, “Treatment of multiple sclerosis using COP-1 and Th2-enhancing cytokines” (Autoimmune, Inc., priority 1998, published 2001).

What was measured:
MBP-specific T cells = details: experiments in mice
EAE [1] = details: oral administration to rats
T cell = details: oral administration to rats
[2] = system: experimental allergic encephalitis (EAE); details: in vivo
MS = details: daily subcutaneous injections of 20 mg
[3] = system: T suppressor cells specific for MBP
EAE [4] = details: oral feeding; EAE induced with 0.4 mg mouse MBP; monitored 35 days

| Molecule | effect on MBP-specific T cells involved in destruction of central nervous system tissue in EAE (MBP-specific T cells) | severity and incidence of EAE (EAE [1]) | T cell proliferative responses (T cell) | TH1 cytokine production (T cell) | encephalitogenicity (causes EAE when injected) [2] | Expanded Disability Status Scale (MS) | annualized relapse rate, lower in treated patients (MS) [%] | proportion of patients that did not have a relapse in clinical disease (MS) [%] | induction of T suppressor cells specific for MBP [3] | delay in disease onset (EAE [4]) [days] |
| --- | --- | --- | --- | --- | --- | --- | --- | --- | --- | --- |
| glatiramer acetate [COP-1] | specifically inhibits | suppressed | inhibited | inhibited | not encephalitogenic | significant improvement | 29 | 34 | induce T suppressor cells | – |
| IL-4: interleukin-4, a Th2-enhancing cytokine (protein, UniProt P05112 25-153, looked up) Interleukin-4: HKCDITLQEIIKTLNSLTEQKTLCTELTVTDIFAASKNTTEKETFCRAATVLRQFYSHHEKDTRCLGATAQQFHRHKQLIRFLKRLDRNLWGLAGLNSCPVKEANQSTLENFLERLKTIMREKYSKCSS | – | – | – | – | – | – | – | – | – | 21 |
| MBP: myelin basic protein, a component of myelin in the central nervous system (protein, UniProt P02686 1-304, looked up) Myelin basic protein: MGNHAGKRELNAEKASTNSETNRGESEKKRNLGELSRTTSEDNEVFGEADANQNNGTSSQDTAVTDSKRTADPKNAWQDAHPADPGSRPHLIRLFSRDAPGREDNTFKDRPSESDELQTIQEDSAATSESLDVMASQKRPSQRHGSKYLATASTMDHARHGFLPRHRDTGILDSIGRFFGGDRGAPKRGSGKDSHHPARTAHYGSLPQKSHGRTQDENPVVHFFKNIVTPRTPPPSQGKGRGLSLSRFSWGAEGQRPGFGYGGRASDYKSAHKGFKGVDAQGTLSKIFKLGGRDSRSGSPMARR | – | – | – | – | highly encephalitogenic | – | – | – | – | 22 |
